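Five compound concentrations were applied to cells in 96-well plates for 48 hours; endpoints were derived by simple linear interpolation of the resulting dose-response curve. At the GI50, growth is halved.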 Activity calls are given as the source filed them. Cut-off read from the data, not from the text of the source: active = GI50 up to about 1.1 µM and inactive = higher.
Experiments:
Experiment in all cases: DTP human tumour cell line panel, 48 h
NCI-H23 = test system: NCI-H23
OVCAR-5 = test system: OVCAR-5
MCF7 = test system: MCF7
UO-31 = test system: UO-31
SF-295 = test system: SF-295
ACHN = test system: ACHN
NCI/ADR-RES = test system: NCI/ADR-RES
Hs-578T = test system: Hs-578T
T47D = test system: T47D
HCC 2998 = test system: HCC 2998
SK-OV-3 = test system: SK-OV-3
SF-539 = test system: SF-539
SNB-19 = test system: SNB-19
MDA-N = test system: MDA-N
HOP-92 = test system: HOP-92
CCRF-CEM = test system: CCRF-CEM
MDA-MB-231 = test system: MDA-MB-231
A549 = test system: A549
SN12C = test system: SN12C
UACC-62 = test system: UACC-62
LOX IMVI = test system: LOX IMVI
SNB-75 = test system: SNB-75
NCI-H460 = test system: NCI-H460
HT-29 = test system: HT-29
U-251 = test system: U-251
SK-MEL-28 = test system: SK-MEL-28
KM12 = test system: KM12
M14 = test system: M14
HCT-15 = test system: HCT-15
RPMI-8226 = test system: RPMI-8226
EKVX = test system: EKVX
SR = test system: SR
Malme-3M = test system: Malme-3M
HOP-62 = test system: HOP-62
COLO 205 = test system: COLO 205
786-0 = test system: 786-0
SK-MEL-2 = test system: SK-MEL-2
SF-268 = test system: SF-268
K562 = test system: K562
A498 = test system: A498
HL-60 = test system: HL-60
DU-145 = test system: DU-145
SK-MEL-5 = test system: SK-MEL-5
TK-10 = test system: TK-10
OVCAR-4 = test system: OVCAR-4
UACC-257 = test system: UACC-257
HCT-116 = test system: HCT-116
OVCAR-8 = test system: OVCAR-8
SW-620 = test system: SW-620
RXF 393 = test system: RXF 393
PC-3 = test system: PC-3
NCI-H522 = test system: NCI-H522
MOLT-4 = test system: MOLT-4
MDA-MB-435 = test system: MDA-MB-435
OVCAR-3 = test system: OVCAR-3
BT-549 = test system: BT-549
CAKI-1 = test system: CAKI-1
IGROV-1 = test system: IGROV-1
NCI-H226 = test system: NCI-H226

In the case of `COc1cccc(C2CC(C)(O)Oc3cc4c(cc32)OCO4)c1O` (configuration not stated), the GI50 (NCI-H23) is reported as 30.4 µM (inactive), the GI50 (OVCAR-5) is reported as 27 µM (inactive) and the GI50 (MCF7) is reported as 11.4 µM (inactive). The GI50 (UO-31) was 35.6 µM (inactive), the GI50 (SF-295) was 19.4 µM (inactive) and the GI50 (ACHN) was 31.8 µM (inactive). For the same molecule, the GI50 (NCI/ADR-RES) was 19.7 µM (inactive), the GI50 (Hs-578T) was 15.4 µM (inactive) and the GI50 (T47D) was 64.4 µM (inactive). For the same molecule, the GI50 (HCC 2998) was 25.6 µM (inactive), the GI50 (SK-OV-3) was 28.5 µM (inactive) and the GI50 (SF-539) was 17.4 µM (inactive). The GI50 (SNB-19) was 31 µM (inactive), the GI50 (MDA-N) was 2.72 µM (inactive) and the GI50 (HOP-92) was 22.4 µM (inactive). The GI50 (CCRF-CEM) was 13.3 µM (inactive), the GI50 (MDA-MB-231) was 18 µM (inactive) and the GI50 (A549) was 34.4 µM (inactive). For the same molecule, the GI50 (SN12C) was 28.7 µM (inactive), the GI50 (UACC-62) was 15.7 µM (inactive) and the GI50 (LOX IMVI) was 25.3 µM (inactive). The GI50 (SNB-75) was 14.2 µM (inactive), the GI50 (NCI-H460) was 32.6 µM (inactive) and the GI50 (HT-29) was 21.4 µM (inactive). The GI50 (U-251) was 24.2 µM (inactive), the GI50 (SK-MEL-28) was 35.2 µM (inactive) and the GI50 (KM12) was 12.5 µM (inactive). The GI50 (M14) was 13.5 µM (inactive), the GI50 (HCT-15) was 21.7 µM and the GI50 (RPMI-8226) was 32.5 µM (inactive). For the same molecule, the GI50 (EKVX) was 34.6 µM (inactive), the GI50 (SR) was 4.63 µM (inactive) and the GI50 (Malme-3M) was 29.2 µM (inactive). The GI50 (HOP-62) was 27.4 µM (inactive), the GI50 (COLO 205) was 19.5 µM (inactive) and the GI50 (786-0) was 24.8 µM (inactive). For the same molecule, the GI50 (SK-MEL-2) was 22.8 µM (inactive), the GI50 (SF-268) was 31 µM (inactive) and the GI50 (K562) was 9.68 µM (inactive). The GI50 (A498) was 41.7 µM (inactive), the GI50 (HL-60) was 31 µM (inactive) and the GI50 (DU-145) was 22.6 µM (inactive). For the same molecule, the GI50 (SK-MEL-5) was 9.31 µM (inactive), the GI50 (TK-10) was 39.7 µM (inactive) and the GI50 (OVCAR-4) was 38.8 µM (inactive). For the same molecule, the GI50 (UACC-257) was 39.4 µM (inactive), the GI50 (HCT-116) was 10.7 µM (inactive) and the GI50 (OVCAR-8) was 25.7 µM (inactive). For the same molecule, the GI50 (SW-620) was 22.8 µM (inactive), the GI50 (RXF 393) was 26.3 µM (inactive) and the GI50 (PC-3) was 27.2 µM (inactive). The GI50 (NCI-H522) was 20.1 µM (inactive), the GI50 (MOLT-4) was 37.4 µM (inactive) and the GI50 (MDA-MB-435) was 2.78 µM (inactive). For the same molecule, the GI50 (OVCAR-3) was 15.6 µM (inactive), the GI50 (BT-549) was 15.3 µM (inactive) and the GI50 (CAKI-1) was 39.4 µM (inactive). For the same molecule, the GI50 (IGROV-1) was 27.9 µM (inactive) and the GI50 (NCI-H226) was 17.4 µM (inactive).

For `COc1ccc(/C=C/C(=O)Oc2ccccc2OC)cc1`, the GI50 (NCI-H23) was 33 µM (inactive), the GI50 (OVCAR-5) was 23.6 µM (inactive) and the GI50 (MCF7) was 44.4 µM (inactive). The GI50 (UO-31) was 37.7 µM (inactive), the GI50 (SF-295) was 3.21 µM (inactive) and the GI50 (ACHN) was > 27.6 µM (inactive). For the same molecule, the GI50 (NCI/ADR-RES) was 27.8 µM (inactive), the GI50 (Hs-578T) was 41.7 µM (inactive) and the GI50 (T47D) was 31.5 µM (inactive). The GI50 (HCC 2998) was 16.6 µM (inactive), the GI50 (SK-OV-3) was > 100 µM (inactive) and the GI50 (SF-539) was 53.2 µM (inactive). For the same molecule, the GI50 (SNB-19) was 50.2 µM (inactive), the GI50 (MDA-N) was 36.4 µM (inactive) and the GI50 (HOP-92) was > 48.2 µM (inactive). For the same molecule, the GI50 (CCRF-CEM) was 0.336 µM (active), the GI50 (MDA-MB-231) was 6.52 µM (inactive) and the GI50 (A549) was 37.8 µM (inactive). For the same molecule, the GI50 (SN12C) was 13.9 µM (inactive), the GI50 (UACC-62) was 54.5 µM (inactive) and the GI50 (LOX IMVI) was 29.9 µM (inactive). The GI50 (SNB-75) was 27.2 µM (inactive), the GI50 (NCI-H460) was > 100 µM (inactive) and the GI50 (HT-29) was 16.4 µM (inactive). For the same molecule, the GI50 (U-251) was 37.4 µM (inactive), the GI50 (SK-MEL-28) was 73.5 µM (inactive) and the GI50 (KM12) was 9.04 µM (inactive). The GI50 (M14) was 30.6 µM (inactive), the GI50 (HCT-15) was 3.27 µM and the GI50 (RPMI-8226) was 1.95 µM (inactive). The GI50 (EKVX) was 37.8 µM (inactive), the GI50 (SR) was 6.73 µM (inactive) and the GI50 (Malme-3M) was 56.9 µM (inactive). For the same molecule, the GI50 (HOP-62) was 8 µM (inactive), the GI50 (COLO 205) was 7.26 µM (inactive) and the GI50 (786-0) was 14 µM (inactive). The GI50 (SK-MEL-2) was 39 µM (inactive), the GI50 (SF-268) was 1.81 µM (inactive) and the GI50 (K562) was 23.8 µM (inactive). For the same molecule, the GI50 (A498) was > 100 µM (inactive), the GI50 (HL-60) was 6.98 µM (inactive) and the GI50 (DU-145) was > 61.8 µM (inactive). The GI50 (SK-MEL-5) was 30.7 µM (inactive), the GI50 (TK-10) was > 81.8 µM (inactive) and the GI50 (OVCAR-4) was 9.59 µM (inactive). The GI50 (UACC-257) was > 60.7 µM (inactive), the GI50 (HCT-116) was 2.91 µM (inactive) and the GI50 (OVCAR-8) was 26.5 µM (inactive). For the same molecule, the GI50 (SW-620) was 21.5 µM (inactive), the GI50 (RXF 393) was > 51.5 µM (inactive) and the GI50 (PC-3) was 44.4 µM (inactive). The GI50 (NCI-H522) was 20.3 µM (inactive), the GI50 (MOLT-4) was 1.57 µM (inactive) and the GI50 (MDA-MB-435) was 40.6 µM (inactive). The GI50 (OVCAR-3) was 53.8 µM (inactive), the GI50 (BT-549) was 67 µM (inactive) and the GI50 (CAKI-1) was > 46.1 µM (inactive). The GI50 (IGROV-1) was 5.2 µM (inactive) and the GI50 (NCI-H226) was > 96.6 µM (inactive).

`CN(C)CCNc1ccc2c(=O)n(CCN(C)C)c(=O)n3c4ccc([N+](=O)[O-])cc4c(=O)c1c23` was tested, and the GI50 (NCI-H23) was 0.177 µM (active), the GI50 (OVCAR-5) was 0.532 µM (active) and the GI50 (MCF7) was 0.0716 µM (active). The GI50 (UO-31) was 0.262 µM (active), the GI50 (SF-295) was 0.359 µM (active) and the GI50 (ACHN) was 0.146 µM (active). For the same molecule, the GI50 (NCI/ADR-RES) was 0.251 µM (active), the GI50 (Hs-578T) was 1.01 µM (active) and the GI50 (T47D) was 0.653 µM (active). The GI50 (HCC 2998) was 0.387 µM (active), the GI50 (SK-OV-3) was 0.76 µM (active) and the GI50 (SF-539) was 0.277 µM (active). For the same molecule, the GI50 (SNB-19) was 0.452 µM (active), the GI50 (MDA-N) was 0.287 µM (active) and the GI50 (HOP-92) was 0.201 µM (active). The GI50 (CCRF-CEM) was 0.0382 µM (active), the GI50 (MDA-MB-231) was 0.429 µM (active) and the GI50 (A549) was 0.184 µM (active). The GI50 (SN12C) was 0.197 µM (active), the GI50 (UACC-62) was 1.24 µM (inactive) and the GI50 (LOX IMVI) was 0.178 µM (active). The GI50 (SNB-75) was 0.293 µM (active), the GI50 (NCI-H460) was 0.0838 µM (active) and the GI50 (HT-29) was 0.0946 µM (active). The GI50 (U-251) was 0.34 µM (active), the GI50 (SK-MEL-28) was 1.04 µM (active) and the GI50 (KM12) was 0.518 µM (active). For the same molecule, the GI50 (M14) was 1 µM (active), the GI50 (HCT-15) was 0.0966 µM and the GI50 (RPMI-8226) was 0.163 µM (active). For the same molecule, the GI50 (EKVX) was 0.55 µM (active), the GI50 (SR) was 0.0815 µM (active) and the GI50 (Malme-3M) was 0.344 µM (active). The GI50 (HOP-62) was 0.384 µM (active), the GI50 (COLO 205) was 0.179 µM (active) and the GI50 (786-0) was 0.294 µM (active). The GI50 (SK-MEL-2) was 0.397 µM (active), the GI50 (SF-268) was 0.334 µM (active) and the GI50 (K562) was 0.063 µM (active). The GI50 (A498) was 1.41 µM (inactive), the GI50 (HL-60) was 0.157 µM (active) and the GI50 (DU-145) was 0.267 µM (active). The GI50 (SK-MEL-5) was 1.04 µM (active), the GI50 (TK-10) was 1.09 µM (active) and the GI50 (OVCAR-4) was 0.301 µM (active). The GI50 (UACC-257) was 0.728 µM (active), the GI50 (HCT-116) was 0.0769 µM (active) and the GI50 (OVCAR-8) was 0.248 µM (active). The GI50 (SW-620) was 0.0524 µM (active), the GI50 (RXF 393) was 0.198 µM (active) and the GI50 (PC-3) was 0.482 µM (active). For the same molecule, the GI50 (NCI-H522) was 0.08 µM (active), the GI50 (MOLT-4) was < 0.0141 µM (active) and the GI50 (MDA-MB-435) was 0.49 µM (active). The GI50 (OVCAR-3) was 0.27 µM (active), the GI50 (BT-549) was 0.655 µM (active) and the GI50 (CAKI-1) was 0.498 µM (active). For the same molecule, the GI50 (IGROV-1) was 0.126 µM (active) and the GI50 (NCI-H226) was 0.312 µM (active).
